# Laboratory results reported in ChEMBL document CHEMBL1201862, “PubChem BioAssay data set” (2004).
#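 Cultured in 96-well plates, cells were exposed to test compound for 48 hours across five concentrations. Abbreviation: GI50, concentration required for 50% inhibition of growth.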 Calls of active or inactive are those of the source. No stated cut-off is given here; in the data, active = GI50 up to about 1.1 µM and inactive = higher.
# How the values were obtained:
# Experiment in all cases: DTP human tumour cell line panel, 48 h
# 786-0 = tested on: 786-0
# A498 = tested on: A498
# COLO 205 = tested on: COLO 205
# DU-145 = tested on: DU-145
# EKVX = tested on: EKVX
# HCC 2998 = tested on: HCC 2998
# HCT-116 = tested on: HCT-116
# HOP-62 = tested on: HOP-62
# HOP-92 = tested on: HOP-92
# Hs-578T = tested on: Hs-578T
# K562 = tested on: K562
# KM12 = tested on: KM12
# LOX IMVI = tested on: LOX IMVI
# MCF7 = tested on: MCF7
# MDA-MB-231 = tested on: MDA-MB-231
# MDA-MB-435 = tested on: MDA-MB-435
# NCI-H226 = tested on: NCI-H226
# NCI-H23 = tested on: NCI-H23
# NCI-H522 = tested on: NCI-H522
# NCI/ADR-RES = tested on: NCI/ADR-RES
# OVCAR-3 = tested on: OVCAR-3
# OVCAR-4 = tested on: OVCAR-4
# OVCAR-5 = tested on: OVCAR-5
# RPMI-8226 = tested on: RPMI-8226
# SF-268 = tested on: SF-268
# SF-295 = tested on: SF-295
# SF-539 = tested on: SF-539
# SK-MEL-28 = tested on: SK-MEL-28
# SK-MEL-2 = tested on: SK-MEL-2
# SK-MEL-5 = tested on: SK-MEL-5
# SK-OV-3 = tested on: SK-OV-3
# SN12C = tested on: SN12C
# SNB-75 = tested on: SNB-75
# SW-620 = tested on: SW-620
# T47D = tested on: T47D
# U-251 = tested on: U-251
# A549 = tested on: A549
# ACHN = tested on: ACHN
# CAKI-1 = tested on: CAKI-1
# CCRF-CEM = tested on: CCRF-CEM
# HL-60 = tested on: HL-60
# HT-29 = tested on: HT-29
# IGROV-1 = tested on: IGROV-1
# M14 = tested on: M14
# MDA-N = tested on: MDA-N
# MOLT-4 = tested on: MOLT-4
# Malme-3M = tested on: Malme-3M
# OVCAR-8 = tested on: OVCAR-8
# PC-3 = tested on: PC-3
# SNB-19 = tested on: SNB-19
# TK-10 = tested on: TK-10
# UACC-257 = tested on: UACC-257
# UACC-62 = tested on: UACC-62
# UO-31 = tested on: UO-31
# HCT-15 = tested on: HCT-15
# NCI-H460 = tested on: NCI-H460
# RXF 393 = tested on: RXF 393
# SR = tested on: SR
structure (smiles),measurement,setting,value
CCc1nc(N)nc(N)c1-c1ccc(Cl)c(N=[N+]=[N-])c1,GI50,786-0,3.44 µM (inactive)
same,GI50,A498,8.39 µM (inactive)
same,GI50,COLO 205,7.74 µM (inactive)
same,GI50,DU-145,11.2 µM (inactive)
same,GI50,EKVX,2.75 µM (inactive)
same,GI50,HCC 2998,9.62 µM (inactive)
same,GI50,HCT-116,0.6 µM (active)
same,GI50,HOP-62,16.7 µM (inactive)
same,GI50,HOP-92,20.5 µM (inactive)
same,GI50,Hs-578T,16.7 µM (inactive)
same,GI50,K562,0.37 µM (active)
same,GI50,KM12,7.36 µM (inactive)
same,GI50,LOX IMVI,2.21 µM (inactive)
same,GI50,MCF7,5.48 µM (inactive)
same,GI50,MDA-MB-231,15.6 µM (inactive)
same,GI50,MDA-MB-435,2.84 µM (inactive)
same,GI50,NCI-H226,22.7 µM (inactive)
same,GI50,NCI-H23,4.03 µM (inactive)
same,GI50,NCI-H522,9.51 µM (inactive)
same,GI50,NCI/ADR-RES,5.5 µM (inactive)
same,GI50,OVCAR-3,15.6 µM (inactive)
same,GI50,OVCAR-4,19.2 µM (inactive)
same,GI50,OVCAR-5,12.1 µM (inactive)
same,GI50,RPMI-8226,8.87 µM (inactive)
same,GI50,SF-268,9.35 µM (inactive)
same,GI50,SF-295,2.09 µM (inactive)
same,GI50,SF-539,4.05 µM (inactive)
same,GI50,SK-MEL-28,13.5 µM (inactive)
same,GI50,SK-MEL-2,14.6 µM (inactive)
same,GI50,SK-MEL-5,2.61 µM (inactive)
same,GI50,SK-OV-3,31 µM (inactive)
same,GI50,SN12C,12.6 µM (inactive)
same,GI50,SNB-75,22.1 µM (inactive)
same,GI50,SW-620,1.6 µM (inactive)
same,GI50,T47D,28.5 µM (inactive)
same,GI50,U-251,4.69 µM (inactive)
CC(O)c1nc(C#N)c(N)o1 (configuration not stated),GI50,786-0,> 100 µM (inactive)
same,GI50,A498,> 100 µM (inactive)
same,GI50,A549,> 100 µM (inactive)
same,GI50,ACHN,> 100 µM (inactive)
same,GI50,CAKI-1,> 100 µM (inactive)
same,GI50,CCRF-CEM,> 100 µM (inactive)
same,GI50,COLO 205,> 100 µM (inactive)
same,GI50,DU-145,> 100 µM (inactive)
same,GI50,EKVX,> 100 µM (inactive)
same,GI50,HCT-116,> 100 µM (inactive)
same,GI50,HL-60,> 100 µM (inactive)
same,GI50,HOP-62,> 100 µM (inactive)
same,GI50,HOP-92,> 100 µM (inactive)
same,GI50,HT-29,> 100 µM (inactive)
same,GI50,Hs-578T,> 100 µM (inactive)
same,GI50,IGROV-1,> 100 µM (inactive)
same,GI50,K562,> 100 µM (inactive)
same,GI50,KM12,> 100 µM (inactive)
same,GI50,LOX IMVI,> 100 µM (inactive)
same,GI50,M14,> 100 µM (inactive)
same,GI50,MCF7,> 100 µM (inactive)
same,GI50,MDA-MB-231,> 100 µM (inactive)
same,GI50,MDA-N,> 100 µM (inactive)
same,GI50,MOLT-4,> 100 µM (inactive)
same,GI50,Malme-3M,> 100 µM (inactive)
same,GI50,NCI-H226,> 100 µM (inactive)
same,GI50,NCI-H23,> 100 µM (inactive)
same,GI50,NCI-H522,> 100 µM (inactive)
same,GI50,NCI/ADR-RES,> 100 µM (inactive)
same,GI50,OVCAR-3,> 100 µM (inactive)
same,GI50,OVCAR-5,> 100 µM (inactive)
same,GI50,OVCAR-8,> 100 µM (inactive)
same,GI50,PC-3,> 100 µM (inactive)
same,GI50,RPMI-8226,> 100 µM (inactive)
same,GI50,SF-268,> 100 µM (inactive)
same,GI50,SF-295,> 100 µM (inactive)
same,GI50,SF-539,> 100 µM (inactive)
same,GI50,SK-MEL-28,> 100 µM (inactive)
same,GI50,SK-MEL-2,> 100 µM (inactive)
same,GI50,SK-MEL-5,> 100 µM (inactive)
same,GI50,SK-OV-3,> 100 µM (inactive)
same,GI50,SN12C,> 100 µM (inactive)
same,GI50,SNB-19,> 100 µM (inactive)
same,GI50,SNB-75,> 100 µM (inactive)
same,GI50,SW-620,> 100 µM (inactive)
same,GI50,T47D,> 100 µM (inactive)
same,GI50,TK-10,> 100 µM (inactive)
same,GI50,U-251,> 100 µM (inactive)
same,GI50,UACC-257,> 100 µM (inactive)
same,GI50,UACC-62,> 100 µM (inactive)
same,GI50,UO-31,> 100 µM (inactive)
O=C(Cc1cccs1)N[C@@H]1C(=O)N2C(C(=O)OC(c3ccccc3)c3ccccc3)=C(CO)CS[C@H]12,GI50,786-0,> 100 µM (inactive)
same,GI50,A498,> 100 µM (inactive)
same,GI50,A549,> 100 µM (inactive)
same,GI50,ACHN,91.8 µM (inactive)
same,GI50,CAKI-1,> 100 µM (inactive)
same,GI50,CCRF-CEM,20 µM (inactive)
same,GI50,COLO 205,> 100 µM (inactive)
same,GI50,DU-145,> 100 µM (inactive)
same,GI50,EKVX,> 100 µM (inactive)
same,GI50,HCC 2998,52.8 µM (inactive)
same,GI50,HCT-116,> 100 µM (inactive)
same,GI50,HCT-15,92.7 µM
same,GI50,HL-60,46.6 µM (inactive)
same,GI50,HOP-92,> 100 µM (inactive)
same,GI50,IGROV-1,29.9 µM (inactive)
same,GI50,K562,> 100 µM (inactive)
same,GI50,KM12,38.1 µM (inactive)
same,GI50,LOX IMVI,> 100 µM (inactive)
same,GI50,M14,> 100 µM (inactive)
same,GI50,MCF7,> 100 µM (inactive)
same,GI50,MDA-MB-231,> 100 µM (inactive)
same,GI50,MDA-MB-435,65.9 µM (inactive)
same,GI50,MDA-N,> 100 µM (inactive)
same,GI50,MOLT-4,> 100 µM (inactive)
same,GI50,Malme-3M,40.7 µM (inactive)
same,GI50,NCI-H226,0.0283 µM (active)
same,GI50,NCI-H23,46 µM (inactive)
same,GI50,NCI-H460,75.2 µM (inactive)
same,GI50,NCI-H522,16.8 µM (inactive)
same,GI50,NCI/ADR-RES,96.6 µM (inactive)
same,GI50,OVCAR-3,> 100 µM (inactive)
same,GI50,OVCAR-4,74.3 µM (inactive)
same,GI50,OVCAR-5,> 100 µM (inactive)
same,GI50,OVCAR-8,> 100 µM (inactive)
same,GI50,PC-3,> 100 µM (inactive)
same,GI50,RPMI-8226,96.2 µM (inactive)
same,GI50,RXF 393,> 100 µM (inactive)
same,GI50,SF-295,> 100 µM (inactive)
same,GI50,SF-539,> 100 µM (inactive)
same,GI50,SK-MEL-2,> 100 µM (inactive)
same,GI50,SK-MEL-5,> 100 µM (inactive)
same,GI50,SK-OV-3,> 100 µM (inactive)
same,GI50,SN12C,> 100 µM (inactive)
same,GI50,SR,47.4 µM (inactive)
same,GI50,SW-620,> 100 µM (inactive)
same,GI50,TK-10,> 100 µM (inactive)
same,GI50,U-251,> 100 µM (inactive)
same,GI50,UACC-257,> 100 µM (inactive)
same,GI50,UACC-62,> 100 µM (inactive)
same,GI50,UO-31,17.9 µM (inactive)
